Laboratory results from patent US7713957B2, “Pharmaceutical composition containing gabapentin or pregabalin and N-type calcium channel antagonist” (Ajinomoto Co., Inc., priority 2002, dated 2010).
Like-named read-outs stand apart in the source and are kept apart here.

Key:
N-type calcium channel = biological target: T1, N-type calcium channel (Homo sapiens, UniProt Q00975); assay: Antagonistic activity on N-type calcium channel (fluorescence dye method, IMR-32 cells); assay type: cell-based; conditions: 10 μM test compound, 60 mM KCl stimulation, 1 μM Nifedipine, read-out: Antagonistic activity on N-type calcium channels at 10 μM Inhibition rate (%)
T1 construct: host or cells: IMR-32 human neuroblastoma cells, differentiated with dibutyl cAMP and 5-bromodeoxyuridine for 10 to 14 days
T1 sequence (Q00975 whole entry): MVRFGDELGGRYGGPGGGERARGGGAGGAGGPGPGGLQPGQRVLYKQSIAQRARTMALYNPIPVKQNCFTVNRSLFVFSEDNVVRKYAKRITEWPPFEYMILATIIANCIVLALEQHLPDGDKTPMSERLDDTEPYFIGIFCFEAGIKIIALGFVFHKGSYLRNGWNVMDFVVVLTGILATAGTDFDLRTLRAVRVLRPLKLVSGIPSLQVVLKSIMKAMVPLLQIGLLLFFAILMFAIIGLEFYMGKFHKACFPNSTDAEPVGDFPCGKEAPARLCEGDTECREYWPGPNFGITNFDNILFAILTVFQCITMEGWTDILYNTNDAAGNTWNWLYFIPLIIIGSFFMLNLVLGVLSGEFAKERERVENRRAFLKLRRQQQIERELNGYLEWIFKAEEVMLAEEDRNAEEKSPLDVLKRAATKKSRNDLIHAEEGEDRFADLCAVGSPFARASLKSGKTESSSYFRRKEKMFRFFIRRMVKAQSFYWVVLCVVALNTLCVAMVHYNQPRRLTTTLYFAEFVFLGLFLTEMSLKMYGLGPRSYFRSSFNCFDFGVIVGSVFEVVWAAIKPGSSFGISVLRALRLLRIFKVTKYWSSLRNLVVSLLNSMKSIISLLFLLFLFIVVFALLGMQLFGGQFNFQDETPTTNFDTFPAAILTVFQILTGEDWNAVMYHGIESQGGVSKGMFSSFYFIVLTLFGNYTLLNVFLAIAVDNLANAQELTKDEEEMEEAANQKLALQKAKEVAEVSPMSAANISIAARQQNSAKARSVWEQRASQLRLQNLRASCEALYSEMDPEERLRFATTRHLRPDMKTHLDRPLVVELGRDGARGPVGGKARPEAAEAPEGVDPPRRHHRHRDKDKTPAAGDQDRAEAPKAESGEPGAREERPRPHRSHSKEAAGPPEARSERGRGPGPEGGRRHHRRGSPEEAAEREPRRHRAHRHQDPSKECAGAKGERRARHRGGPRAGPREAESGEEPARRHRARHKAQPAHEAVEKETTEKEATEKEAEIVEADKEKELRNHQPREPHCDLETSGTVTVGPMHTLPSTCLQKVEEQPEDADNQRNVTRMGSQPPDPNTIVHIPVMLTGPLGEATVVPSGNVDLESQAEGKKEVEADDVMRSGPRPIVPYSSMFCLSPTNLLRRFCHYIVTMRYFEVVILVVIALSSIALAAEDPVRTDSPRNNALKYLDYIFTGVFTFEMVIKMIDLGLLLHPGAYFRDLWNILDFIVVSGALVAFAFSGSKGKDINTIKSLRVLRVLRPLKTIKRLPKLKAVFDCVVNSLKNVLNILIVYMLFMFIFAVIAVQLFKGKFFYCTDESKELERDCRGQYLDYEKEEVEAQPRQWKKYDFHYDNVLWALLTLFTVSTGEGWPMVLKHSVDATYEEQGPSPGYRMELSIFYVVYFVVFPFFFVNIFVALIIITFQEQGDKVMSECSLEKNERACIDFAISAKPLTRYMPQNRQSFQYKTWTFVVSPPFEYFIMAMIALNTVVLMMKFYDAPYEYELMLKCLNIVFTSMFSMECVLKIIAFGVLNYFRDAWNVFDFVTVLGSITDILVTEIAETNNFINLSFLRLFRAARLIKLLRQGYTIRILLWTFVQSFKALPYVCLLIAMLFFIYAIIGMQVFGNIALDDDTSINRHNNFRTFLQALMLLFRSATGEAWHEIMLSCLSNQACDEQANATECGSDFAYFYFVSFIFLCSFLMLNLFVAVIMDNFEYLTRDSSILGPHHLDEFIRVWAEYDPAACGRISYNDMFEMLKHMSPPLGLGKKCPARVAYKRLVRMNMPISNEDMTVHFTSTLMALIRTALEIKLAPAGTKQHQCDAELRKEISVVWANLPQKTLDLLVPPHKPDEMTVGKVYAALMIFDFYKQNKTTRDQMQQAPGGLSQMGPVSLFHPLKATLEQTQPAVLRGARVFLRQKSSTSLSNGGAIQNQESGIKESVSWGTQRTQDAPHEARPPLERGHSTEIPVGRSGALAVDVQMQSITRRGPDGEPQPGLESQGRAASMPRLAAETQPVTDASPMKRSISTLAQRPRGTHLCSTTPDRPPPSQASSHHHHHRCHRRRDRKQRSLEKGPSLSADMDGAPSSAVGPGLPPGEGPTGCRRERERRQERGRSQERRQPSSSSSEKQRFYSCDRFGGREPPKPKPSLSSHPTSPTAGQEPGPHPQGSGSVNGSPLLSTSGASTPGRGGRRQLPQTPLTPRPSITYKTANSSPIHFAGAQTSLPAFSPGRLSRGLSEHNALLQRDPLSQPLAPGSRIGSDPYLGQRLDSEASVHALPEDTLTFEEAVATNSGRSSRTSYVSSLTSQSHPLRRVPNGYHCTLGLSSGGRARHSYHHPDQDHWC
T1 sequence (Q02641 whole entry partner): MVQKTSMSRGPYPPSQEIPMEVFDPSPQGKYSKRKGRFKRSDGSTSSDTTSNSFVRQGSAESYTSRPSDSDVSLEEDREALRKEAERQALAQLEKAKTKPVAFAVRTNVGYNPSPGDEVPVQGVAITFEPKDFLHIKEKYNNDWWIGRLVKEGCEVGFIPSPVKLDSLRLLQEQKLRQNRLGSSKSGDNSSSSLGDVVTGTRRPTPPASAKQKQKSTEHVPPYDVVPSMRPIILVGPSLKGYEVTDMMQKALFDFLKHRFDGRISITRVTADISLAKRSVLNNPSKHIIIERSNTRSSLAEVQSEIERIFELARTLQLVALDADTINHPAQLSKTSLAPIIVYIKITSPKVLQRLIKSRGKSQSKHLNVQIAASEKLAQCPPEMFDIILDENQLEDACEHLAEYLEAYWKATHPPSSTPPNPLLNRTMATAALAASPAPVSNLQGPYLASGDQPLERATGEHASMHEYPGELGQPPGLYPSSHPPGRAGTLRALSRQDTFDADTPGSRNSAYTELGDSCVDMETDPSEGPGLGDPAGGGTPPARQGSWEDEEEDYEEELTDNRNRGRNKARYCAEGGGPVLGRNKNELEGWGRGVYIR
T1 sequence (P54289 25-956 partner limits assumed): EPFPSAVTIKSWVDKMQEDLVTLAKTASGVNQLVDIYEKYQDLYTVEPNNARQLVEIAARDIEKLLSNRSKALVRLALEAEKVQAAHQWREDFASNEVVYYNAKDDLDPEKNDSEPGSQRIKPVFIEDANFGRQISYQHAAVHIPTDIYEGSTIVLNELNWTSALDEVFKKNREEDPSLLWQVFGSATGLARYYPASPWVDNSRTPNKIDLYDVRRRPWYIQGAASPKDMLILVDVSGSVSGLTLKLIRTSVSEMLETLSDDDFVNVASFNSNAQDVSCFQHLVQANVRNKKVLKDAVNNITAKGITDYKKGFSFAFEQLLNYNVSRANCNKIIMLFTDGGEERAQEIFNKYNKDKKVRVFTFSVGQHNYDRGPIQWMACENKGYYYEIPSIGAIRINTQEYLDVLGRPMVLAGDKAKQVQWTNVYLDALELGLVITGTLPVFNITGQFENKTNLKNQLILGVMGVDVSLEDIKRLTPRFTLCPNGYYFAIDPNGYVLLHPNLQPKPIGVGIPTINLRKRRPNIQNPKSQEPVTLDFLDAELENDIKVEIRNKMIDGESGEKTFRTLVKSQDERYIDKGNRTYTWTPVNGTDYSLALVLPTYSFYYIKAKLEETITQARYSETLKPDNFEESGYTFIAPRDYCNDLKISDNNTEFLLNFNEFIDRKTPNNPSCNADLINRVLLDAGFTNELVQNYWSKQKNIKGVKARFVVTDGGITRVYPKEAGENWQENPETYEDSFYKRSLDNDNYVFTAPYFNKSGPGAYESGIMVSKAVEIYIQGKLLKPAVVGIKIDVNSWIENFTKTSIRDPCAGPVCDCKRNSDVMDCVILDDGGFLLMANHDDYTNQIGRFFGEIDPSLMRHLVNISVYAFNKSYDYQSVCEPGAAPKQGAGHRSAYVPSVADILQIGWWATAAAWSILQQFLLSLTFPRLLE
T1 sequence (P54289 957-1103 partner limits assumed): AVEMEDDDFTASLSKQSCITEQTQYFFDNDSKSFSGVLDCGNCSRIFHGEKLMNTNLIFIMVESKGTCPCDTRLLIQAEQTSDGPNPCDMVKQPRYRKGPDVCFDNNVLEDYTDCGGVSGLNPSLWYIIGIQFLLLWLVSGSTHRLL
Description: Antagonistic Activity on N-Type Calcium Channel (Fluorescence Dye Method)
Human neuroblastoma cells IMR-32 were obtained from ATCC (American Type Culture Collection). The medium used was a Phenol Red-free Eagle minimum essential medium containing earle's salts supplement (GIBCO) supplemented with 2 mM of L-glutamine (GIBCO), 1 mM of sodium pyruvate (pH 6.5) (GIBCO), antibiotic/antimycotic mixture (GIBCO) and 10% fetal calf serum (Cell Culture Technologies). 3 ml of 1×10^5 cells/ml IMR-32 cells were spread on the glass bottom of a dish (Iwaki Glsss Co., Ltd.) having a diameter of 35 mm which had been treated with poly-L-lysin (SIGMA) and collagen (COLLAGEN VITROGEN 100; Collagen Co.). After the culture for 1 day, 1 mM (final concentration) of dibutyl cAMP and 2.5 μM (final concentration) of 5-bromodeoxyuridine (SIGMA) were added. After the culture for additional 10 to 14 days, the cells were subjected to the activity determination.
The medium for IMR-32 cells thus prepared was replaced with 1 ml of Phenol Red-free and earle's salts supplemented Eagle minimum essential medium (GIBCO) containing 2.5 μM fura-2/AM (Dojin Kagaku, Co.), and the incubation was conducted at 37° C. for 30 minutes. […] Antagonistic activity on N-type calcium channel was determined and analyzed using a fluorescence microscope (Nikon Corporation) and an image analysis device ARGUS 50 (Hamamatsu Photonics). […]

Sprague-Dawley rats = assay: Formalin test in rat pain models (flinching action, second phase); assay type: in vivo
Description: Analgesic activities were determined in the formalin test. Four test groups [a control group (given a saline solution) and groups given 30, 100 and 300 mg/kg of gabapentin] each composed of 6 to 7 male Sprague-Dawley rats (SD rats, 9 weeks old) were used for the experiment. Gabapentin was dissolved in a saline solution.
4 ml/kg of a saline solution or gabapentin was orally administered to the rats. Three hours after, the rats were tranquilized with halothane, and 2.5% formalin solution (100 μl) was injected subcutaneously to dorsal surface of the left hindpaw. Immediately thereafter, the rats were awaken from the anesthesia. […] The number of times of retracting action, i.e., flinching action of the hindpaw in which formalin had been injected, was counted for 1 minute at an interval of one minute until 5 minutes after the formalin injection, and for 1 minute at an interval of 5 minutes from 10 to 60 minutes after the injection. […] The total number of times of the flinching action observed 10 to 60 minutes after the formalin injection (the second phase) was taken as the index of the pain action.
Analgesic activities were determined in the formalin test. Four test groups [a control group, a group given the compound A (the compound of Referential Example 11: 3 mg/kg), a group given 100 mg/kg of gabapentin and a group given a combination of 3 mg/kg of the compound A and 100 mg/kg of gabapentin] each composed of 6 to 7 male Sprague-Dawley rats (SD rats, 9 weeks old) were used for the experiment. The administration volume to each group was as follows. In the control group, 5 ml/kg of 0.5% tragacanth solution and 4 ml/kg of a saline solution were given orally to the rats. In the group given the compound A, 5 ml/kg of the compound A suspended in 0.5% tragacanth solution and 4 ml/kg of a saline solution were given orally to them. In the group given gabapentin, 5 ml/kg of 0.5% tragacanth solution and 4 ml/kg of gabapentin dissolved in a saline solution were given orally to them. In the group given a combination of the compound A and gabapentin, 5 ml/kg of the compound A suspended in 0.5% tragacanth solution and 4 ml/kg of gabapentin dissolved in a saline solution were given orally to them.
Analgesic activities were determined in the formalin test. Four test groups [a control group, a group given the compound B (the compound of Referential Example 71: 3 mg/kg), a group given 100 mg/kg of gabapentin and a group given a combination of 3 mg/kg of the compound B and 100 mg/kg of gabapentin] each composed of 6 male Sprague-Dawley rats (SD rats, 9 weeks old) were used for the experiment. The administration volume to each group was as follows. In the control group, 3 ml/kg of polyethylene glycol 400 (PEG) and 4 ml/kg of a saline solution were given orally to the rats. In the group given the compound B, 3 ml/kg of the compound B dissolved in PEG and 4 ml/kg of a saline solution were given orally to them. In the group given gabapentin, 3 ml/kg of PEG and 4 ml/kg of gabapentin dissolved in a saline solution were given orally to them. In the group given the combination of compound B and gabapentin, 3 ml/kg of the compound B dissolved in PEG and 4 ml/kg of gabapentin dissolved in a saline solution were given orally to them.
Analgesic activities were determined in the formalin test. Four test groups [a control group (given a saline solution) and groups given 10, 30 and 100 mg/kg of pregabalin] each composed of 6 male Sprague-Dawley rats (SD rats, 9 weeks old) were used for the experiment. Pregabalin was dissolved in a saline solution. 4 ml/kg of a saline solution or pregabalin was orally administered to the rats.
Analgesic activities were determined in the formalin test.

[1] = cited from earlier work
[2] = patients with post-herpetic neuralgia (Acta Neurol. Scand. 101:359-371, 2000); cited from earlier work
[3] = clinical use; cited from earlier work

CC(C)(C)CC(=O)NCCCNC(=O)C=C1c2ccccc2C=Cc2ccccc21 [Example 41]
inhibition at 10 µM (N-type calcium channel): 76%

CC(C)(C)C(=O)NCCC(=O)N1CCC(=C2c3ccccc3C=Cc3ccccc32)CC1 [Referential Example 11, N-{3-[4-(5H-dibenzo[a, d] [7]annulen-5-ylidene)-1-piperidinyl]-3-oxopropyl}-2,2-dimethylpropanamide]
inhibiting ratio of flinches (Sprague-Dawley rats; Example 2, 3 mg/kg oral, suspended in 0.5% tragacanth): 38%

CC(C)(C)C(=O)N[C@H](CO)CCC(=O)N1CCC(=C2c3ccccc3C=Cc3ccccc32)CC1 [Referential Example 71, (S)-N-[4-[4-(5H-dibenzo[a,d] [7]annulen-5-ylidene)-1-piperidinyl]-1-(hydroxylmethyl)-4-oxobutyl]-2.2-dimethylpropanamide]
inhibiting ratio of flinches (Sprague-Dawley rats; Example 3, 3 mg/kg oral, dissolved in PEG): 16%
inhibiting ratio of flinches (Sprague-Dawley rats; Example 5, 3 mg/kg oral, dissolved in PEG): 7%

NCC1(CC(=O)O)CCCCC1 [gabapentin, 1-(aminomethyl)-cyclohexaneacetic acid]
motor function of the body ([1]; whole body administration of 300 mg/kg or more): significant decrease in motor function of the body
inhibiting ratio of flinches (Sprague-Dawley rats; Example 1, 30 mg/kg oral, vs control group): 11%
inhibiting ratio of flinches (Sprague-Dawley rats; Example 1, 100 mg/kg oral, vs control group): 42%
inhibiting ratio of flinches (Sprague-Dawley rats; Example 1, 300 mg/kg oral, vs control group): 47%
inhibiting ratio of flinches (Sprague-Dawley rats; Example 2, 100 mg/kg oral): 47%
inhibiting ratio of flinches (Sprague-Dawley rats; Example 3, 100 mg/kg oral): 59%
treatment effectiveness [2]: approximately 60%
side-effects [3]: somnolence and dizziness

CC(C)C[C@H](CN)CC(=O)O [pregabalin, (S)-3-(aminomethyl)-5-methylhexanoic acid]
motor function of the body ([1]; whole body administration of 100 mg/kg or more): significant decrease in motor function of the body
inhibiting ratio of flinches (Sprague-Dawley rats; Example 4, 10 mg/kg oral, vs control group): 31%
inhibiting ratio of flinches (Sprague-Dawley rats; Example 4, 30 mg/kg oral, vs control group): 61%
inhibiting ratio of flinches (Sprague-Dawley rats; Example 4, 100 mg/kg oral, vs control group): 61%
inhibiting ratio of flinches (Sprague-Dawley rats; Example 5, 30 mg/kg oral): 48%
side-effects [3]: somnolence and dizziness
